{
  "source": "patent US20240060999A1",
  "about": "“BLOOD COAGULATION INSPECTION METHOD” (FUJIMORI KOGYO CO., LTD, priority 2020, published 2024)",
  "test_system": "whole blood",
  "experiment": "ROTEM whole blood coagulation with dialyzed Dade Innovin (recombinant tissue factor) 0.569 μg/mL + Ca 12 mM + CTI 20 μg/mL + PKSI-527 40 μM",
  "assay_type": "cell-based",
  "details": "Ex26; for CT (clotting time): Innovin 0.569 μg/mL+Ca+CTI+PKSI-527, heparan sulfate 2 μg/mL",
  "description": "ROTEM was used to analyze blood coagulation.\nBlood was collected using a blood collection tube containing 3.2% sodium citrate manufactured by Terumo Corporation.\nBlood coagulation was analyzed in the case of having added 4% (final concentration 0.569 μg/mL) of Dade Innovin (recombinant tissue factor: Sysmex Corporation) having being diluted by 50 times after dialysis, calcium chloride (Ca; final concentration 12 mM), heparan sulfate (final concentration 0 or 2 μg/mL), CTI (final concentration 20 μg/mL), PKSI-527 (final concentration 40 μM) without and with a soluble thrombomodulin (rTM: final concentration 30 nM) further having been added, as well as with an APC inhibitory aptamer (HS02-44G; final concentration 1 μM) in addition to 30 nM of soluble thrombomodulin.\nBlood coagulation was analyzed in the case of having added 4% (final concentration 0.569 μg/mL) of 50-fold diluted Dade Innovin (recombinant tissue factor: Sysmex Corporation) after dialysis, calcium chloride (Ca; final concentration 12 mM), low molecular weight heparan (trade name FRAGMIN; Pfizer) (final concentration 0 or 0.2 U/mL), CTI (final concentration 20 μg/mL), and PKSI-527 (final concentration 40 μM) with and without a soluble thrombomodulin (rTM; final concentration 30 nM) further having been added, as well as with an APC inhibitory aptamer (HS02-44G; final concentration 1 μM) in addition to 30 nM soluble thrombomodulin.\nROTEM was used to analyze coagulation.\nBlood coagulation was analyzed in the case of having added 4% (final concentration 0.569 μg/mL) of 50-fold diluted Dade Innovin (recombinant tissue factor: Sysmex Corporation) after dialysis, calcium chloride (Ca; final concentration 12 mM), ARIXTRA (final concentration 0 or […]), CTI (final concentration 20 μg/mL), and PKSI-527 (final concentration 40 μM), without and with thrombomodulin (rTM; final concentration 30 nM) further having been added, as well as with an APC inhibitory aptamer (HS02-44G; final concentration 1 μM) in addition to soluble thrombomodulin 30 nM.",
  "data": [
    {"substance": "Heparan sulfate", "values": [
      {"measurement": "CT (clotting time)", "setting": "no rTM", "value": 410, "unit": "s"},
      {"measurement": "CT (clotting time)", "setting": "rTM 30 nM", "value": 904, "unit": "s"},
      {"measurement": "CT (clotting time)", "setting": "rTM 30 nM+APC inhibitory aptamer 1 μM", "value": 643, "unit": "s"},
      {"measurement": "anticoagulation ability of the soluble thrombomodulin", "setting": "addition of heparan sulfate 2 μg/mL, rTM 30 nM", "value": "markedly enhanced"}
    ]}
  ]
}
